Columns and labels:
[1] = Plasma clearance following IV dosing, CD1 mice (Example 3 of WO 2010/086646 protocol); assay type: in vivo; settings: mouse, male CD1 mice, 5 mg/kg intravenously, 10% NMP/90% water
Protocol: Compound was administered both intravenously and orally to mice. Blood samples were collected at up to 7 time points over 8 hours and plasma was analysed by LC-MS/MS to determine the concentration of compound at each time point. The plasma time concentration profile was delivered along with the main calculated PK parameters (Co, Cmax, AUC-last, t1/2, tmax, Vd, and CL).
Three male CD1 mice, 25-30 g, were dosed per administration route per timepoint. Compound was administered both orally (10 mg compound per kg of body weight) and intravenously (5 mg compound per kg body weight). The excipient used was 10% NMP/90% water. Animals were given free access to food throughout the study.
At the following time points, the animals were anaesthetized, blood collected in heparinized tubes and animals were sacrificed:
Blood samples were centrifuged to obtain the plasma, which was transferred to a separate, labelled container. Aliquots from the individual time points for the three animals were analyzed singly. Protein was precipitated by adding three volumes of methanol and centrifuging for 30 min at 4° C. […] The plasma samples were quantified by LC-MS/MS and the concentration of compound in plasma was reported in μg/mL. Pharmacokinetic parameters were calculated employing non-compartmental model analysis.

[2] = Plasma clearance following IV dosing, CD1 mouse (Example A of WO 2014/072714 protocol); assay type: in vivo; settings: male CD1 mouse, 5 mg/kg I.V., 10% DMSO, 15% Cremophor, 75% Saline
Protocol: Formulation: Solutions in 10% DMSO, 15% Cremophor, 75% Saline
Dosing: 10 mg/kg P.O. and 5 mg/kg I.V.
Protocol: • n=3 male mice per time point per route; • Terminal blood sampling at 8 time points (5 min, 10 min, 0.5 hr, 1 hr, 3 hr, 6 hr, 8 hr and, 24 hr); • Collection of plasma, bio-analysis and report of AUC, AUMC, Vss, CL, half life, MRT and bioavailability.

[3] = target: HDAC1 (Homo sapiens, UniProt Q13547); assay: Biochemical Selectivity: HDAC1 inhibition
HDAC1, sequence (Q13547 whole entry, species assumed): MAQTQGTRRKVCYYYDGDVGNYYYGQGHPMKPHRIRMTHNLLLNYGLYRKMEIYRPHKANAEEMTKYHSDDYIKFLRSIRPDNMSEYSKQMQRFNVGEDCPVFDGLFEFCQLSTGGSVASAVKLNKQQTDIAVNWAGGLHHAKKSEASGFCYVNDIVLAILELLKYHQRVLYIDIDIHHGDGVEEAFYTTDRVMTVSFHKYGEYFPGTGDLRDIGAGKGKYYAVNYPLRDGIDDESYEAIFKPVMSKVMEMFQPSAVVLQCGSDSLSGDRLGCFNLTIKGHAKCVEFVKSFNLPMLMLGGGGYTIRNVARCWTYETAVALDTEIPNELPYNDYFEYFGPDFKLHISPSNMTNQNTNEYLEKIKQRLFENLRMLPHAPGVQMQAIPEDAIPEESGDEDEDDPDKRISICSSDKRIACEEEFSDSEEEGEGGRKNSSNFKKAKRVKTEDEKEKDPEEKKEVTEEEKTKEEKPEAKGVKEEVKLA
Excerpt: (§1) Compounds of the invention may be tested for HDAC inhibitory activity by any suitable assay, e.g. the assay described in WO2008/062201.

[4] = target: T1, HDAC6 (Homo sapiens, UniProt Q9UBN7); assay: Biochemical Selectivity: HDAC6 inhibition
T1 sequence (Q9UBN7 1-1215): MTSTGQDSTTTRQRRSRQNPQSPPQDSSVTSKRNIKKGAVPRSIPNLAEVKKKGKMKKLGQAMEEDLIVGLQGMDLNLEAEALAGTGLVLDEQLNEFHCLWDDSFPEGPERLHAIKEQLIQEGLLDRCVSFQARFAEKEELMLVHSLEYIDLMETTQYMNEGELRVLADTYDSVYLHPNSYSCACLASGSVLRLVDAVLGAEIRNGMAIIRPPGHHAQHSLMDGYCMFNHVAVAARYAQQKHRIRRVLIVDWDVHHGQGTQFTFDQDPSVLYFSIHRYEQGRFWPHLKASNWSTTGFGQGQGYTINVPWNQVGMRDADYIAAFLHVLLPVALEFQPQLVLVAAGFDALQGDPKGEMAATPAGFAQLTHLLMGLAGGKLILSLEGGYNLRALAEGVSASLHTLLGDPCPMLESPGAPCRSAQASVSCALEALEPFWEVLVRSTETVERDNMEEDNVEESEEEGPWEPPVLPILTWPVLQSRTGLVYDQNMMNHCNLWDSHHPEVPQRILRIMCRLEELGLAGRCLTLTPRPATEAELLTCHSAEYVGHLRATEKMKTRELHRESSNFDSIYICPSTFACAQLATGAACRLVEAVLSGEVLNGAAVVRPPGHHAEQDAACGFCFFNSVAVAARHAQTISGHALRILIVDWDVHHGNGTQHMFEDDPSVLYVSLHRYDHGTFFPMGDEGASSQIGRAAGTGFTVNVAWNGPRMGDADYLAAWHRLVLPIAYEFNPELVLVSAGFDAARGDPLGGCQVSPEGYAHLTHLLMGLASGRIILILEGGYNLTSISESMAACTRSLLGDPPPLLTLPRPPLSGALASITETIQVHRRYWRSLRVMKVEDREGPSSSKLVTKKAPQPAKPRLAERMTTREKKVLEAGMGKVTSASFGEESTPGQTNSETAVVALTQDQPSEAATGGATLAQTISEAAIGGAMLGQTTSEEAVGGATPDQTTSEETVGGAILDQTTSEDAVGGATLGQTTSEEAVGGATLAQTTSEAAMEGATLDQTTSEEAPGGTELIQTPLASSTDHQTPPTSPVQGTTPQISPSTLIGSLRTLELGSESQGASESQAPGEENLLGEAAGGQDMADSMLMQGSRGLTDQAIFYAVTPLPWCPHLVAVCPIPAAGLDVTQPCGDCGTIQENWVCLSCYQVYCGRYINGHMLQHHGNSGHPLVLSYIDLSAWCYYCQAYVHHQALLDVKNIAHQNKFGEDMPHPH
Excerpt: as §1

[5] = Plasma clearance following IV dosing, Balb/c mice (Example D protocol); assay type: in vivo; settings: mouse, male Balb/c mice, 3 mg/kg i.v., 5% NMP, 5% solutol HS-15 in 90% HPβCD solution
Protocol: A group of eighteen male Balb/c mice were divided into two groups Group 1 (3 mg/kg; i.v.), Group 2 (10 mg/kg; p.o.) with each group comprising of nine mice. Animals in Group 1 were administered intravenously with Example D solution formulation in 5% NMP, 5% solutol HS-15 in 90% HPβCD solution (20% HPβCD in RO water) at 3 mg/kg dose while animals in Group 2 were administered orally with 10 mg/kg solution formulation of Example D in 5% NMP, 5% solutol HS-15 in 90% HPβCD solution (20% HPβCD in RO water). Blood samples (approximately 60 μL) were collected from retro orbital plexus under light isoflurane anesthesia such that the samples were obtained at pre-dose, 0.08, 0.25, 0.5, 1, 2, 4, 8 and 24 hr (i.v.) and pre-dose, 0.25, 0.5, 1, 2, 4, 6, 8 and 24 hr (p.o.). The blood samples were collected from set of three mice at each time point in labeled micro centrifuge tube containing K2EDTA as anticoagulant. Plasma samples were separated by centrifugation of whole blood and stored below −70° C. until bioanalysis. All samples were processed for analysis by protein precipitation using acetonitrile (ACN) and analyzed with fit for purpose LC/MS/MS method (LLOQ: 1.27 ng/mL). Pharmacokinetic parameters were calculated using the non-compartmental analysis tool of Phoenix WinNonlin (Version 6.3).

| SMILES | clearance [1] | clearance [2] | IC50 [3] | IC50 [4] | clearance [5] |
| --- | --- | --- | --- | --- | --- |
| O=C(CCCCCCN(c1ccccn1)c1ccccn1)NO [Example 3 of WO 2010/086646] | 374 mL/min/kg | – | – | – | – |
| Cc1nsc(N(CCCCCCC(=O)NO)c2ccccn2)n1 [Example A of WO 2014/072714] | – | 253 mL/min/kg | – | – | – |
| O=C(CCCCCCN(c1cnccn1)c1cnccn1)NO [Example A, 7-[Bis(pyrazin-2-yl)amino]-N-hydroxyheptanamide] | – | – | > 1000 nM | ≤ 100 nM | – |
| O=C(CCCCCCN(c1cnccn1)c1nccn2ncnc12)NO [Example B] | – | – | > 1000 nM | ≤ 100 nM | – |
| O=C(CCCCCCN(c1cnccn1)c1ccn2nccc2n1)NO [Example C, N-Hydroxy-7-[(pyrazin-2-yl)({pyrazolo[1,5-a]pyrimidin-5-yl})amino]heptanamide] | – | – | 100 to 1000 nM | ≤ 100 nM | – |
| O=C(CCCCCCN(c1cnccn1)c1ccc(C(F)(F)F)nn1)NO [Example D, N-Hydroxy-7-[(pyrazin-2-yl)[6-(trifluoromethyl)pyridazin-3-yl]amino]heptanamide] | – | – | 100 to 1000 nM | ≤ 100 nM | 48.6 mL/min/kg |
| COc1ccc(N(CCCCCCC(=O)NO)c2cnccn2)nn1 [Example E, N-Hydroxy-7-[(6-methoxypyridazin-3-yl)(pyrazin-2-yl)amino]heptanamide] | – | – | 100 to 1000 nM | ≤ 100 nM | – |
| O=C(CCCCCCN(c1cnccn1)c1ccc2nccn2n1)NO [Example F, N-Hydroxy-7-({imidazo[1,2-b]pyridazin-6-yl}(pyrazin-2-yl)amino) heptanamide] | – | – | 100 to 1000 nM | ≤ 100 nM | – |
| Cc1nsc(N(CCCCCCC(=O)NO)c2ccnc(N3CCOCC3)n2)n1 [Example G, N-Hydroxy-7-[(3-methyl-1,2,4-thiadiazol-5-yl)[2-(morpholin-4-yl)pyrimidin-4-yl]amino]heptanamide] | – | – | 100 to 1000 nM | ≤ 100 nM | – |
| O=C(CCCCCCN(c1cnccn1)c1ncncc1F)NO [Example H, 7-[(5-Fluoropyrimidin-4-yl)(pyrazin-2-yl)amino]-N-hydroxyheptanamide] | – | – | > 1000 nM | ≤ 100 nM | – |
| CN(C)c1cc(N(CCCCCCC(=O)NO)c2cnccn2)ncn1 [Example I, 7-{[6-(Dimethylamino)pyrimidin-4-yl](pyrazin-2-yl)amino}-N-hydroxyheptanamide] | – | – | > 1000 nM | ≤ 100 nM | – |
| O=C(CCCCCCN(c1cnccn1)c1ncnc2occc12)NO [Example J, 7-({Furo[2,3-d]pyrimidin-4-yl}(pyrazin-2-yl)amino)-N-hydroxyheptanamide] | – | – | > 1000 nM | ≤ 100 nM | – |
| O=C(CCCCCCN(c1ccncn1)c1cnccn1)NO [Example K, N-Hydroxy-7-[(pyrazin-2-yl)(pyrimidin-4-yl)amino]heptanamide] | – | – | 100 to 1000 nM | 100 to 1000 nM | – |
| Cc1cc(C(=O)N(C)C)nc(N(CCCCCCC(=O)NO)c2nc(C)ns2)n1 [Example L, 2-{[6-(hydroxycarbamoyl)hexyl](3-methyl-1,2,4-thiadiazol-5-yl)amino}-N,N,6-trimethylpyrimidine-4-carboxamide] | – | – | 100 to 1000 nM | ≤ 100 nM | – |
| COCc1cc(N(CCCCCCC(=O)NO)c2nc(C)ns2)ncn1 [Example M, N-hydroxy-7-{[6-(methoxymethyl)pyrimidin-4-yl](3-methyl-1,2,4-thiadiazol-5-yl)amino}heptanamide] | – | – | > 1000 nM | ≤ 100 nM | – |
| Cn1ccc2ncnc(N(CCCCCCC(=O)NO)c3cnccn3)c21 [Example N, N-hydroxy-7-({5-methyl-5H-pyrrolo[3,2-d]pyrimidin-4-yl}(pyrazin-2-yl)amino) heptanamide] | – | – | > 1000 nM | ≤ 100 nM | – |
| CN(C)c1ccc(N(CCCCCCC(=O)NO)c2cnccn2)nn1 [Example O, 7-{[6-(dimethylamino)pyridazin-3-yl](pyrazin-2-yl)amino}-N-hydroxyheptanamide] | – | – | 100 to 1000 nM | ≤ 100 nM | – |
| Cn1ncc2ncnc(N(CCCCCCC(=O)NO)c3cnccn3)c21 [Example P, N-hydroxy-7-({1-methyl-1H-pyrazolo[4,3-d]pyrimidin-7-yl}(pyrazin-2-yl)amino)heptanamide] | – | – | > 1000 nM | ≤ 100 nM | – |
| CN(C)c1cnc(N(CCCCCCC(=O)NO)c2cnccn2)cn1 [Example Q, 7-{[5-(dimethylamino)pyrazin-2-yl](pyrazin-2-yl)amino}-N-hydroxyheptanamide] | – | – | 100 to 1000 nM | ≤ 100 nM | – |
| O=C(CCCCCCN(c1cncnc1)c1cnccn1)NO [Example R, N-hydroxy-7-[(pyrazin-2-yl)(pyrimidin-5-yl)amino]heptanamide] | – | – | > 1000 nM | ≤ 100 nM | – |
| Cc1noc(N(CCCCCCC(=O)NO)c2cncc(N3CCOCC3)n2)n1 [Example S, N-hydroxy-7-[(3-methyl-1,2,4-oxadiazol-5-yl)[6-(morpholin-4-yl)pyrazin-2-yl]amino]heptanamide] | – | – | > 1000 nM | ≤ 100 nM | – |

— patent US10407435B2, “Diheteroaryl histone deacetylase inhibitors and their use in therapy” (Karus Therapeutics Limited, priority 2014, dated 2019)
